Test results: publication PMC7694037, “Quinolizidine-Derived Lucanthone and Amitriptyline Analogues Endowed with Potent Antileishmanial Activity” (Pharmaceuticals, 2020)
In brackets after ≈: the same amount, converted by molar mass. Read-outs that look alike come from different tables or passages of the source.

Key:
[1] = system: choline uptake into rat brain synaptosomes; design: method as in PMID 6124978; conditions: 1 µM concentration; cited from earlier work
PMA-differentiated THP-1 = experiment: Cytotoxicity against PMA-differentiated THP-1 cells (MTT); format: cell-based, human; conditions: CC50 THP-1 / IC50 L. infantum amastigotes
Protocol: (§1) The cytotoxic concentration (CC50) against THP-1 differentiated into macrophages (Table 3), used for testing the activity against the amastigote stage, is also reported.
(§2) THP-1 cells were plated at 5 × 10^5 cells/mL in 96 wells flat bottom microplates and treated with 0.1 µM PMA for 48 h to achieve differentiation into macrophages. Cells were then treated with serial dilutions of test compounds and cell proliferation evaluated using the MTT assay described for promastigotes.

[2] = as above; format: cell-based, human; conditions: human
Protocol: as §1, §2

[3] = system: Leishmania tropica promastigotes; experiment: Antileishmanial activity against L. tropica promastigotes (MTT assay); conditions: for IC50: 72 h, IC50 ± SD; for Ratio IC50 Miltef./IC50 Compd. (L. tropica): ratio between IC50 of miltefosine and that of each compound, L. tropica promastigotes
Protocol: (§5) Promastigote stage of L. infantum strain MHOM/TN/80/IPT1 (kindly provided by Dr. M. Gramiccia, ISS, Roma) and L. tropica (MHOM/SY/2012/ISS3130) were cultured in RPMI 1640 medium (EuroClone) supplemented with 10% heat-inactivated fetal calf serum (EuroClone, Milan Italy), 20 mM Hepes and 2 mM L-glutamine at 24 °C. […] Compounds were dissolved in DMSO and then diluted with medium to achieve the required concentrations. Drugs were placed in 96 wells round-bottom microplates and seven serial dilutions made. Miltefosine was used as reference anti-Leishmania drug. Parasites were diluted in complete medium to 5 × 10^6 parasites/mL and 100 μL of the suspension was seeded into the plates, incubated at 24 °C for 72 h and then 20 µL of MTT solution (5 mg/mL) was added into each well for 3 h. The plates were then centrifuged, the supernatants were discarded and the resulting pellets were dissolved in 100 µL of lysing buffer consisting of 20% (w/v) of a solution of SDS (Sigma), 40% DMF (Merck, Milan Italy) in H2O. The absorbance was measured spectrophotometrically at a test wavelength of 550 nm and a reference wavelength of 650 nm.

Staphylococcus aureus = system: Staphylococcus aureus; design: method as in PMID 3653383; conditions: cited from earlier work
[4] = system: L. infantum promastigotes; experiment: Antileishmanial activity against L. infantum promastigotes (MTT assay); conditions: for IC50: Leishmania infantum, 72 h, read-out: IC50 L. infantum; for Ratio IC50 Miltef./IC50 Compd. (L. infantum): ratio between IC50 of miltefosine and that of each compound, L. infantum promastigotes
Protocol: as §5

[5] = cited from earlier work
[6] = system: intramacrophagic amastigotes of L. infantum; experiment: Intracellular amastigote susceptibility assay in PMA-differentiated THP-1 macrophages; format: cell-based; conditions: Leishmania infantum; intramacrophagic amastigotes in THP-1 macrophages, 72 h; mean ± SD; read-out: L. infantum Amastigotes IC50
Protocol: Finally, for a better idea of their real value as antileishmanial agents, compounds 14 and 17, displaying the most promising activity against promastigote stage and the highest SI values, together with lucanthone and the corresponding quinolizidine analog 1, were tested against the intramacrophagic amastigote stage of L. infantum.
THP-1 cells (human acute monocytic leukemia) were maintained in RPMI supplemented with 10% FBS (EuroClone), 50 µM 2-mercaptoethanol, 20 mM Hepes and 2 mM glutamine, at 37 °C in 5% CO2. For Leishmania infections, THP-1 cells were plated at 5 × 10^5 cells/mL in 16-chamber Lab-Tek culture slides (Nunc, Milan, Italy) and treated with 0.1 µM phorbol myristate acetate (PMA, Sigma) for 48 h to achieve differentiation into macrophages. Cells were washed and infected with metacyclic L. infantum promastigotes at a macrophage/promastigote ratio of 1/10 for 24 h. Cell monolayers were then washed and incubated in the presence of test compounds for 72 h. Slides were fixed with methanol and stained with Giemsa. The percentages of infected macrophages among treated and non-treated cells were determined by light microscopy.

Vero-76 cells = experiment: Cytotoxicity against Vero-76 cells (crystal violet staining); format: cell-based, Cercopithecus Aethiops; conditions: for S.I. L. tropica: CC50 Vero-76 / IC50 L. tropica promastigotes; for S.I. L. infantum: CC50 Vero-76 / IC50 L. infantum promastigotes; for selectivity index (SI), range over both Leishmania species: Vero-76 cells vs L. tropica and L. infantum promastigotes
Protocol: (§3) The cytotoxicity of lucanthone was also tested for comparison. […] The relevant selectivity index (SI)—a parameter that quantifies the preferential antileishmanial activity of a compound in relation to mammalian cell toxicity (CC50/IC50)—is tabulated in Table 2. […] The replacement of the 4-methyl substituent with an amino group in compound 14, while preserving good antileishmanial activity, led to a further substantial decrease of cytotoxicity, with a resultantly safer profile (SI = 16.2 and 16.9 for the two Leishmania species).
(§4) Vero-76 cells (ATCC CRL 1587 Cercopithecus Aethiops) were seeded at an initial density of 4 × 10^5 cells/mL in 24-well plates, in culture medium (Dulbecco’s modified eagle’s medium (D-MEM) with L-glutamine, supplemented with fetal bovine serum (FBS), 0.025 g/L kanamycin). Cell cultures were then incubated at 37 °C in a humidified, 5% CO2 atmosphere in the absence or presence of serial dilutions of test compounds. Cell viability was determined after 48–96 h at 37 °C by the Crystal violet staining method. The results are expressed as CC50, which is the concentration of compound necessary to inhibit cell growth by 50%. Each CC50 value is the mean and standard deviation of at least three separate experiments performed in duplicate.

[7] = as above; format: cell-based, Cercopithecus Aethiops; conditions: Cercopithecus aethiops (African green monkey)
Protocol: as §3, §4

Bacillus subtilis = system: Bacillus subtilis; design: method as in PMID 3653383; conditions: cited from earlier work
[8] = system: Mycobacterium tuberculosis; design: method as in PMID 3653383; conditions: cited from earlier work
[9] = system: Mycobacterium tuberculosis H37Ra; design: method as in PMID 3653383; conditions: cited from earlier work
[10] = Leishmania tropica, read-out: IC50 L. tropica, promastigotes, MTT, 72 h
[11] = i.p., doses up to 200–350 mg/kg, once a day for five consecutive days, mice inoculated with leukemia P388 cells

SMILES	IC50 [3, 10] [µM]	Ratio IC50 Miltef./IC50 Compd. (L. tropica) [3]	IC50 [4] [µM]	Ratio IC50 Miltef./IC50 Compd. (L. infantum) [4]	other results
CN(C)CCC=C1c2ccccc2CCc2ccccc21 [Amitriptyline]	–	–	–	–	inhibition of choline uptake into rat brain synaptosomes [1]: completely ineffective
Cc1ccc(NC[C@@H]2CCCN3CCCC[C@H]23)c2c(=O)c3ccccc3sc12 [Compound 1]	3.36 ± 1.53	12.9	3.87 ± 1.53	8.1	SI (THP-1) (PMA-differentiated THP-1): 8.0; CC50 [2]: 28 ± 8 µM; MIC Staphylococcus aureus (Staphylococcus aureus): 2.5 µg/mL; MIC Staphylococcus aureus (Staphylococcus aureus; converted from µg/mL): 6.63 µM; mortality [5, 11]: no mortality; IC50 [6]: 3.49 ± 0.18 µM; S.I. L. tropica (Vero-76 cells): 7.0; CC50 [7]: 23.5 ± 1.8 µM; MIC Bacillus subtilis (Bacillus subtilis): 2.5 µg/mL; MIC Bacillus subtilis (Bacillus subtilis; converted from µg/mL): 6.63 µM; MIC Mycobacterium tuberculosis [8]: 1.25 µg/mL; MIC Mycobacterium tuberculosis ([8]; converted from µg/mL): 3.32 µM
Cc1ccc(NCCC2CCCN3CCCCC23)c2c(=O)c3ccccc3sc12 (stereo not drawn) [Compound 2]	6.27 ± 2.75	6.9	10.6 ± 3.78	2.95	S.I. L. infantum (Vero-76 cells): 2.2; S.I. L. tropica (Vero-76 cells): 3.7; CC50 [7]: 22.9 ± 2.3 µM
Cc1ccc(NCCCC2CCCN3CCCCC23)c2c(=O)c3ccccc3sc12 (stereo not drawn) [Compound 3]	8.89 ± 3.02	4.87	17.2 ± 1.31	1.8	–
Cc1ccc(NC[C@@H]2CCC[N+]3(C)CCCC[C@H]23)c2c(=O)c3ccccc3sc12.[I-] (stereo partly drawn) [Compound 4, (1S,9aR)-5-methyl-1-{[(4-methyl-9-oxo-9H-thioxanthen-1-yl)amino]methyl}-decahydroquinolizin-5-ium iodide]	17.8 ± 5.61	2.4	13 ± 2.8	2.4	melting point: 147 to 150 °C
COc1ccc2sc3c(C)ccc(NCC4CCCN5CCCCC45)c3c(=O)c2c1 (stereo not drawn) [Compound 5]	8.16 ± 5.23	5.3	8.99 ± 3.86	3.5	mortality [5, 11]: no mortality
COc1ccc2sc3c(C)ccc(NCCCC4CCCN5CCCCC45)c3c(=O)c2c1 (stereo not drawn) [Compound 7]	12 ± 5.24	3.6	19.7 ± 5.79	1.6	–
O=c1c2ccccc2sc2c([N+](=O)[O-])ccc(NCC3CCCN4CCCCC34)c12 (stereo not drawn) [Compound 8]	19.2 ± 9.33	2.25	38.7 ± 7.67	0.8	–
O=c1c2ccccc2sc2c([N+](=O)[O-])ccc(NCCC3CCCN4CCCCC34)c12 (stereo not drawn) [Compound 9]	4.64 ± 1.12	9.3	9.39 ± 4.34	3.3	mortality [5, 11]: no mortality
O=c1c2ccccc2sc2c([N+](=O)[O-])ccc(NCCCC3CCCN4CCCCC34)c12 (stereo not drawn) [Compound 10]	11.1 ± 3.3	3.9	22.3 ± 3.3	1.4	–
COc1ccc2sc3c([N+](=O)[O-])ccc(NCC4CCCN5CCCCC45)c3c(=O)c2c1 (stereo not drawn) [Compound 11]	6.35 ± 1.46	6.8	13 ± 0.97	2.4	–
COc1ccc2sc3c([N+](=O)[O-])ccc(NCCCC4CCCN5CCCCC45)c3c(=O)c2c1 (stereo not drawn) [Compound 12]	7.39 ± 2.31	5.85	7.89 ± 2.41	3.95	–
Nc1ccc(NCC2CCCN3CCCCC23)c2c(=O)c3ccccc3sc12 (stereo not drawn) [Compound 13]	2.87 ± 0.43	15.1	5.23 ± 1.83	6.0	–
Nc1ccc(NCCC2CCCN3CCCCC23)c2c(=O)c3ccccc3sc12 (stereo not drawn) [Compound 14, 4-amino-1-(quinolizidinylethyl)aminothioxanthen-9-one]	3.8 ± 1.82	11.4	3.63 ± 0.78	8.6	SI (THP-1) (PMA-differentiated THP-1): 10.2; CC50 [2]: 21.7 ± 8.83 µM; mortality ([5]; mouse, in vivo, 260 mg/kg): no mortality; IC50 [6]: 2.13 ± 1.35 µM; S.I. L. infantum (Vero-76 cells): 16.9; S.I. L. tropica (Vero-76 cells): 16.2; selectivity index (SI), range over both Leishmania species (Vero-76 cells): 16–24; CC50 [7]: 61.4 ± 2.6 µM
Nc1ccc(NCCCC2CCCN3CCCCC23)c2c(=O)c3ccccc3sc12 (stereo not drawn) [Compound 15]	3.72 ± 1.66	11.6	4.22 ± 1.95	7.4	–
Cc1ccc(NCC2CCCN3CCCCC23)c2c(=O)c3ccccc3oc12 (stereo not drawn) [Compound 16]	6.56 ± 3.08	6.6	8.23 ± 1.51	3.8	–
C(=C1c2ccccc2-c2ccccc21)[C@@H]1CCCN2CCCC[C@H]12 [Compound 17, 9-(quinolizidinylmethylidene)fluorene]	3.5	12.4	4.35 ± 0.37	7.2	MIC Mycobacterium tuberculosis H37Ra [9]: 0.49 µM (≈ 0.155 µg/mL); SI (THP-1) (PMA-differentiated THP-1): 20.0; CC50 [2]: 53.9 ± 3.98 µM; IC50 ([3]; read-out: IC50 L. tropica, promastigotes, MTT): 3.49 ± 1.02 µM; IC50 [6]: 2.7 ± 0.68 µM; S.I. L. infantum (Vero-76 cells): 19.2; S.I. L. tropica (Vero-76 cells): 23.9; selectivity index (SI), range over both Leishmania species (Vero-76 cells): 16–24; CC50 [7]: 83.4 ± 3 µM
C[N+]12CCCC[C@@H]1[C@H](C=C1c3ccccc3-c3ccccc31)CCC2 (stereo partly drawn) [Compound 19]	10.5 ± 2.69	4.1	16.4 ± 0.59	1.90	MIC Mycobacterium tuberculosis H37Ra [9]: 83.9 µM; S.I. L. infantum (Vero-76 cells): 5.0; S.I. L. tropica (Vero-76 cells): 7.9; CC50 [7]: 82.7 ± 4.7 µM
C[N+]12CCCC[C@@H]1[C@H](C=C1c3ccccc3CCc3ccccc31)CCC2.[I-] (stereo partly drawn) [Compound 20, (1S,9aR)-1-[(10,11-dihydro-5H-dibenzo[a,d][7]annulen-5-ylidene)methyl]-5-methyl-decahydroquinolizin-5-ium iodide]	7.21 ± 3.52	6.0	8.71 ± 0.68	3.58	melting point: 283 to 286 °C; S.I. L. infantum (Vero-76 cells): 10.3; S.I. L. tropica (Vero-76 cells): 12.5; CC50 [7]: 89.9 ± 3.7 µM
CCCCCCCCCCCCCCCCOP(=O)([O-])OCC[N+](C)(C)C [Miltefosine, reference compound]	43.3 ± 11.4	1.0	–	1.0	–
NNC(=O)c1ccncc1 [isoniazide, reference compound]	–	–	–	–	MIC Mycobacterium tuberculosis H37Ra [9]: 0.14 to 0.28 µM
